Experimental data: patent US5556859A, “N-(4-pyrimidinyl)amide pesticides” (DowElanco, priority 1994, dated 1996)

Assays:
[1] = test system: peanut root knot nematode (Meloidogyne arenaria); test: whole plant or invertebrate; details: in Arachis hypogaea, read-out: percent mortality, RKN
[2] = test system: two spotted spider mite (Tetranychus urticae); test: whole plant or invertebrate; details: 72 h, read-out: percent mortality, TSSM
[3] = test system: cotton aphid (Aphis gossypii); test: whole plant or invertebrate; details: 72 h, read-out: percent mortality, CA
[4] = test system: tobacco budworm (Heliothis virescens); test: Activity against tobacco budworm (TBW); type: in vivo; details: 144 h, read-out: percent mortality, TBW
Protocol: In conducting evaluations of insecticidal activity, each test compound was formulated as a 400 ppm solution, and this solution was then diluted with water to give lesser concentrations. The 400 ppm solution was prepared by combining 19.2 mL of 0.05% solution of Tween 20 (polyoxyethylene (20) sorbitan monolaurate) in water with a solution of 8 mg of the compound in 0.8 mL of acetone/EtOH (9/1).
Activity against tobacco budworm (Heliothis virescens) was evaluated as follows. A general purpose lepidoptera artificial diet was diluted to half strength with a 5% non nutritive agar. 8 mL of this diet material was dispensed into each one ounce diet cup. One hour prior to treatment 18 to 20 eggs were dispensed onto the diet surface. The cups were then sprayed with formulated material through a flat-fan nozzle. The test was run using concentrations of 400 ppm and 50 ppm. Treated cups were air dried prior to sealing with plastic caps. The cups were held for 6 days at room temperature. Activity was then rated based on the total number of live and dead larvae, and on the size of live larvae.

[5] = test system: Southern corn rootworm (Diabrotica undecimpuctata howardi Barber); test: whole plant or invertebrate; details: in Zea mays, soil, read-out: percent mortality, SCRW
[6] = test system: beet armyworm (Spodoptera exiqua); test: whole plant or invertebrate; details: 144 h, read-out: percent mortality, BAW
[7] = test system: German cockroach (Blattella germanicus); test: whole plant or invertebrate; details: 240 h, read-out: percent mortality, GECR
[8] = test system: aster leafhopper (Macrosteles fascifrons); test: whole plant or invertebrate; details: 24 h, read-out: percent mortality, ALH

Compound | mortality at 400 ppm [1] | mortality at 400 ppm [2] | mortality at 400 ppm [3] | mortality at 400 ppm [4] | mortality at 24 µg/g [5] | mortality at 400 ppm [6] | mortality at 400 ppm [7] | mortality at 400 ppm [8]
CC(C)(C)c1nccc(NC(=O)Cc2ccc(Oc3ccc(Cl)cc3)cc2)n1 [Compound 59, 4-(4-chlorophenoxy)phenyl-N-(2-(1,1-dimethylethyl)-4-pyrimidinyl)acetamide] | 0% | 0% | 100% | 100% | 100% | 100% | 100% | 80%
CCCCc1nccc(NC(=O)Cc2ccc(Oc3ccc(C(F)(F)F)cc3)cc2)n1 [Compound 65, 4-(4-trifluoromethylphenoxy)phenyl-N-(2-butyl-4-pyrimidinyl)acetamide] | – | 100% | 100% | 100% | 0% | 100% | 100% | 0%
CCc1nccc(NC(=O)C(=CN(C)C)c2ccc(Oc3ccc(Cl)cc3)cc2)n1 [Compound 76, 3-(dimethylamino)-N-(2-ethyl-4-pyrimidinyl)-1-(4-(4-chlorophenoxy)phenyl)-2-propenamide] | 100% | 80% | 100% | 100% | 100% | 100% | 80% | 100%
CCc1nccc(NC(=O)Cc2ccc(Oc3ncc(Br)cn3)cc2)n1 [Compound 14, 4-(5-bromo-2-pyrimidinyloxy)phenyl-N-(2-ethyl-4-pyrimidinyl)acetamide] | 0% | 0% | 100% | 80% | 0% | 100% | 0% | 100%
Cc1nccc(NC(=O)Cc2cccc(Oc3ccccc3)c2)n1 [Compound 8, 3-phenoxyphenyl-N-(2-methyl-4-pyrimidinyl)acetamide] | 0% | 0% | 100% | 0% | 0% | 0% | 40% | 100%
CCc1nccc(NC(=O)C(=CNCC(C)C)c2ccc(Oc3ccc(C#N)cc3)cc2)n1 [Compound 80, 3-(2-methylpropylamino)-N-(2-ethyl-4-pyrimidinyl)-2-(4-(4-cyanophenoxy)phenyl)-2-propenamide] | 100% | 100% | 100% | 100% | 100% | 100% | 100% | 60%
Cc1nccc(NC(=O)Cc2ccc(Oc3ccc(C(F)(F)F)cc3)cc2)n1 [Compound 63, 4-(4-trifluoromethylphenoxy)phenyl-N-(2-methyl-4-pyrimidinyl)acetamide] | 0% | 100% | 100% | 100% | 0% | 100% | 100% | 60%
CCc1nccc(NC(=O)Cc2ccc(Oc3ccc(C#N)cn3)cc2)n1 [Compound 13, 4-(5-cyano-2-pyridinyloxy)phenyl-N-(2-ethyl-4-pyrimidinyl)acetamide] | 100% | 100% | 100% | 100% | 0% | 100% | 60% | 0%
CCc1nccc(NC(=O)Cc2ccc(Oc3ccc(C#N)cc3)cc2)n1 [Compound 12, 4-(4-cyanophenoxy)phenyl-N-(2-ethyl-4-pyrimidinyl)acetamide] | 100% | 100% | 100% | 100% | 100% | 100% | 100% | 100%
CCc1nccc(NC(=O)Cc2ccc(Oc3ccc(F)cc3)cc2)n1 [Compound 10, 4-(4-fluorophenoxy)phenyl-N-(2-ethyl-4-pyrimidinyl)acetamide] | 90% | 100% | 100% | 100% | 100% | 100% | 100% | 100%
CCc1nccc(NC(=O)Cc2ccc(Oc3ccc([N+](=O)[O-])cc3)cc2)n1 [Compound 53, 4-(4-nitrophenoxy)phenyl-N-(2-ethyl-4-pyrimidinyl)acetamide] | 100% | 100% | 100% | 100% | 100% | 100% | 80% | 90%
CCc1nccc(NC(=O)Cc2ccc(Oc3ccc(C(F)(F)F)cc3)cc2)n1 [Compound 11, 4-(4-trifluoromethylphenoxy)phenyl-N-(2-ethyl-4-pyrimidinyl)acetamide] | 80% | 100% | 100% | 100% | 100% | 100% | 100% | 80%
CSc1nccc(NC(=O)Cc2ccc(Oc3ccc(F)cc3)cc2)n1 [Compound 6, 4-(4-fluorophenoxy)phenyl-N-(2-methylthio-4-pyrimidinyl)acetamide] | 0% | 0% | 100% | 90% | 100% | 100% | 60% | 100%
O=C(Cc1ccc(Oc2ccc(C(F)(F)F)cc2)cc1)Nc1ccncn1 [Compound 68, 4-(4-trifluoromethylphenoxy)phenyl-N-(4-pyrimidinyl)acetamide] | 100% | 0% | 0% | 100% | 0% | 0% | 0% | 0%
CCc1nccc(NC(=O)Cc2ccc(OCC(F)(F)F)cc2)n1 [Compound 9, 4-(2,2,2-trifluroethoxy)phenyl-N-(2-ethyl-4-pyrimidinyl)acetamide] | 0% | 0% | 100% | 100% | 0% | 100% | 0% | 100%
Cc1nccc(NC(=O)Cc2ccc(Oc3ccc(Cl)cc3)cc2)n1 [Compound 1, 4-(4-chlorophenoxy)phenyl-N-(2-methyl-4-pyrimidinyl)acetamide] | 100% | 100% | 100% | 100% | 100% | 100% | 100% | 0%
Cc1nccc(NC(=O)Cc2ccc(Oc3cccc(C(F)(F)F)c3)cc2)n1 [Compound 69, 4-(3-trifluoromethylphenoxy)phenyl-N-(2-methyl-4-pyrimidinyl)acetamide] | – | 0% | 0% | 80% | 0% | 80% | 0% | 40%
O=C(Cc1ccc(Oc2ccc(C(F)(F)F)cc2)cc1)Nc1ccnc(C2CC2)n1 [Compound 67, 4-(4-trifluoromethylphenoxy)phenyl-N-(2-cyclopropyl-4-pyrimidinyl)acetamide] | 100% | 100% | 100% | 100% | 100% | 100% | 100% | 60%
O=C(Cc1ccc(Oc2ccc(F)cc2)cc1)Nc1ccnc(-c2ccccc2)n1 [Compound 7, 4-(4-fluorophenoxy)phenyl-N-(2-phenyl-4-pyrimidinyl)acetamide] | 0% | 0% | 100% | 60% | 0% | 60% | 60% | 0%
O=C(Cc1ccc(Oc2ccc(C(F)(F)F)cc2)cc1)Nc1ccnc(C2CCC2)n1 [Compound 66, 4-(4-trifluoromethylphenoxy)phenyl-N-(2-cyclobutyl-4-pyrimidinyl)acetamide] | – | 100% | 100% | 100% | 100% | 100% | 100% | 40%
